Measured values: PubChem BioAssay AID1508610 (The Scripps Research Institute Molecular Screening Center, 2020)
Active and inactive are the calls of the source. The rule behind the calls is not given here.

molecular target: G-protein coupled receptor 151 (Homo sapiens) (UniProt Q8TDV0); experiment: GPR151 activator potency, dose response, cell-based (AID 1508610); conditions: cell-based GPR151 activation reporter
Sequence (Q8TDV0 whole entry, looked up): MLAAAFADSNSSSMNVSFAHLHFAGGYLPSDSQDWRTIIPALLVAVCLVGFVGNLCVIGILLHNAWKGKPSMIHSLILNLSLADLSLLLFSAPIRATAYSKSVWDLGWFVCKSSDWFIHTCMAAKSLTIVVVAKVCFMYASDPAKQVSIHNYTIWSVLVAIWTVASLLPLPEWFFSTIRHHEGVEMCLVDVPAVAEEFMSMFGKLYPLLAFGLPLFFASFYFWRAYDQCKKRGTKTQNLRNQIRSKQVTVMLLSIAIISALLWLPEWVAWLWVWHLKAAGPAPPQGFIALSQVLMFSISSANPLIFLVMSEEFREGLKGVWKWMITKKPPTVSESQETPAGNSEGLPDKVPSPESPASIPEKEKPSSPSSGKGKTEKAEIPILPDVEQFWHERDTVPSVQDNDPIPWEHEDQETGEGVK

Structure (SMILES)	EC50
CCc1ccccc1N(CC(=O)Nc1ccccc1Cl)S(C)(=O)=O	0.00153 µM
C/C(=N\NC(=O)Cn1nnc(-c2ccccc2)n1)c1nonc1C	> 28 µM (inactive)
O=C(NC1CC1)c1ccc(-c2ccc(N3CCOCC3)nc2)s1	> 27.6 µM (inactive)
CSc1cccc(CN2CCN(Cc3ccccc3F)C(CCO)C2)c1 (stereo not given)	> 28 µM (inactive)
Cn1cc(CCC(=O)NC2CCN(Cc3ccccc3)CC2)c2ccccc21	> 28 µM (inactive)
O=C(O)C1CCCN(c2ncnc3scc(-c4ccccc4)c23)C1 (stereo not given)	> 29.7 µM (inactive)
CC[n+]1cc(C)ccc1/C=C/c1ccc(N(C)C)cc1	> 29.7 µM (inactive)
CSc1nccc(-c2cc(Cl)c3c(c2)CC(CNC(=O)c2ccoc2)O3)n1 (stereo not given)	> 28 µM (inactive)
Cc1ccc(NC(=O)C(CC(=O)O)C2CCCO2)cc1 (stereo not given)	> 28 µM (inactive)
CC(C)CC(C(=O)Nc1cccc([N+](=O)[O-])c1)N1C(=O)c2ccccc2C1=O (stereo not given)	> 28 µM (inactive)
COc1ccccc1-c1nnc(NC(=O)c2ccc([N+](=O)[O-])s2)o1	> 9.17 µM (inactive)
CC1=NCCc2c1[nH]c1cc(O)ccc21	> 28 µM (inactive)
COc1ccc(CCNc2ccnc(Nc3ccc(-n4ccnc4)cc3)n2)cc1	inactive
CCN1CCN(Cc2ccc(NC(=O)Nc3ccccc3C)cc2)CC1	> 28 µM (inactive)
O=C(Nc1ncc([N+](=O)[O-])s1)c1cccnc1	> 31.4 µM (inactive)
CC[C@@H](C(=O)[C@@H](C)[C@@H](O)[C@H](C)CCc1ccc(C)c(O)c1C(=O)O)[C@H]1O[C@](CC)([C@H]2CC[C@](O)(CC)[C@H](C)O2)C[C@@H]1C	> 28 µM (inactive)
O=C(CCCC(=O)N/N=C/c1cccc([N+](=O)[O-])c1)N/N=C/c1cccc([N+](=O)[O-])c1	> 28 µM (inactive)
COc1cccc(-c2nc(-c3ccccn3)no2)c1	> 37.5 µM (inactive)
COc1cccc(Nc2nc(Nc3cc(C)ccc3C)nc(N3CCOCC3)n2)c1	> 26.2 µM (inactive)
COc1cccc(NC(=O)n2ncc3c(C)cccc32)c1	> 28 µM (inactive)

Structure (SMILES)	EC50
COc1ccc(OC(C)C(=O)Nc2cc(C)ccc2C)cc1 (stereo not given)	> 32 µM (inactive)
O=C(O)C1CCCN(c2nn3cc(-c4ccc(F)cc4)nc3s2)C1 (stereo not given)	> 28 µM (inactive)
O=C(Nc1ncc([N+](=O)[O-])s1)c1cccs1	> 28 µM (inactive)
CCOCCOC(=O)C1=C(C)Nc2ccc(C)cc2S1	> 28 µM (inactive)
CCOCC(=O)NC12CC3CC(CC(C3)C1)C2	> 44.2 µM (inactive)
COc1ccc(C(=O)N(C)Cc2ccccc2)cc1I	> 28 µM (inactive)
O=C(O)c1ccc(/C=C2\SC(=S)N(CCS(=O)(=O)O)C2=O)cc1	> 28.5 µM (inactive)
Nc1ncnc2c1ccn2[C@@H]1O[C@H](CO)[C@@H](O)[C@H]1O	3.11 µM
CC(C(=O)O)c1ccc(C(=O)c2ccccc2)s1 (stereo not given)	> 28 µM (inactive)
Cc1ccc(-c2csc3nnc(SCC(=O)NC(N)=O)n23)cc1	> 29 µM (inactive)
O=C(O)c1ccc(COc2ccc3c(c2)CCC3)o1	> 28 µM (inactive)
CC(=O)Oc1cccc(N2C(=O)C3C4c5ccccc5C(C)(c5ccccc54)C3C2=O)c1 (stereo not given)	1e-05 µM
O=C1CCCCN1c1cccc(NS(=O)(=O)c2cc(F)ccc2F)c1	> 28 µM (inactive)
COc1ccccc1OCC(=O)Nc1ccc(S(=O)(=O)NC(C)=O)cc1	> 28 µM (inactive)
N#Cc1sc(NC(=O)c2ccc(F)c(F)c2)nc1Cl	> 28 µM (inactive)
CCOC(=O)c1cc(S(=O)(=O)N2CCN(c3ccccc3F)CC2)cn1C	> 28 µM (inactive)
O=C(Nc1nc2c(s1)CCCC2)C1=COCCO1	> 27.4 µM (inactive)
COC(C(=O)NCC1CCC2(CCN(Cc3ccccc3)CC2)O1)c1ccccc1 (stereo not given)	> 28 µM (inactive)
CCC[C@@H]1NC(=O)[C@@H]2C[C@H](NCc3cc(C)ccc3F)CN2C1=O	> 28 µM (inactive)
COc1ccc(-c2noc(CCC(=O)Nc3ccc(C)c(C)c3)n2)cc1	> 28 µM (inactive)
